From paper PMC6264499, “In silico identification and experimental validation of hits active against KPC-2 β-lactamase” (PLoS ONE, 2018)
pIC50, pKi: −log10 of the molar value. Each block holds one compound with its values, some of them ahead of it.

What was measured:
[1] = target: T1, recombinant KPC-2 (Klebsiella pneumoniae, UniProt Q9F663); experiment: KPC-2 inhibition assay, nitrocefin as reporter substrate; type: biochemical; details: for pIC50: nitrocefin 114.28 μM (Km 36 μM), 25°, 485 nm
T1 construct: made in house; host or cells: E. coli BL21 (DE3)
T1 sequence (Q9F663 25-293, looked up): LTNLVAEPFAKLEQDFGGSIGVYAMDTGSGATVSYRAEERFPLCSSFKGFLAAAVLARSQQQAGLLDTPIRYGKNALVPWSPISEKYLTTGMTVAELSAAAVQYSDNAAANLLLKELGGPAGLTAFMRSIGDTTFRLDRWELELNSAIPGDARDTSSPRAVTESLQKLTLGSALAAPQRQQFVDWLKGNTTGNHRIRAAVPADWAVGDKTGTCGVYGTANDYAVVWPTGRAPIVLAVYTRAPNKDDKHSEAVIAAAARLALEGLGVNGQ
Description: (§1) The blaKPC-2 gene was kindly provided by Prof. Sergei Vakulenko (University of Notre Dame du Lac, Indiana, USA) and cloned as already reported and transformed into competent E.coli BL21 (DE3) cells for protein expression. 50 mL of Tryptic Soy Broth (TSB) (50 mg/L kanamycin) were inoculated with fresh colonies and grown at 37°C. 4 mL of the overnight culture was used to inoculate 1.3 L of TSB (50 mg/L kanamycin) grown at 37°C with shaking to an optical density of 0.5 measured at 600 nm. Then expression of recombinant bla gene was induced by adding 1.0 mM IPTG (isopropyl-D-thiogalactopyranoside) and the cells were again allowed to grow at 20°C overnight. Bacteria were harvested by centrifugation at 4000 rpm for 20 minutes. The pelleted cells were resuspended in Tris-HCl 50 mM pH 7.4–7.5. Periplasmatic proteins were extracted as reported in the pET System Manual (TB055 10th Edition Rev. B 0403) and subsequently dialyzed in sodium acetate buffer (50 mM, pH 5.0). The protein was conveniently purified in a single step using a Macro-Prep High S resin and eluted using sodium acetate 50 mM pH 5.0 and a sodium chloride (NaCl) linear gradient from 100 to 500 mM. The purified protein was dialyzed overnight in sodium phosphate buffer 50 mM, pH 7.0 [31, 32].
(§2) The hydrolytic activity of KPC-2 was measured using the β-lactam substrates CENTA (100 uM, KM 70 uM) or nitrocefin (114 uM, KM 36 μM) in reaction buffer consisting of 50 mM of PB at pH 7.0 at 25°C with 0.01% v/v Triton X-100 to avoid compound aggregation and promiscuous inhibition.[33] Reactions were monitored using a Beckmann DU640 spectrophotometer at […] for CENTA and 480 nm wavelength for nitrocefin [34]. The test compounds were synthesized as described below or purchased from Enamine, TimTec, Vitas-M, ChemBridge, Otava, Life Chemicals or Apollo Scientific and assayed without further purification. Compounds were dissolved in dimethyl sulfoxide (DMSO) to a concentration of 25 mM and stored at -20°C. The highest concentration at which the compounds were tested was up to 1 mM (depending on their solubility). All experiments were performed in duplicate and the error never exceeded 5%. The reaction was typically initiated by adding KPC-2 to the reaction buffer last. To control for incubation effects, protein was added to the reaction buffer first, and the reaction was initiated by the addition of reporter substrate after 10 minutes of enzyme-compound incubation.
Kinetic were monitored at 25° by following the absorbance variation at λ = 485 nm. ^[b] If no IC50 has been measured, percent inhibition at the highest tested concentration is given in parentheses. […] When % Inhibition was below 10% No Inhibition (NI) is reported. TEXT PRINTED IN THE PICTURE: 11a: IC50 mM [a,b]: 0.036 | 1b: IC50 mM [a,b]: > 0.2 (25) | 2b: IC50 mM [a,b]: >0.6 (23) | 3b: IC50 mM [a,b]: Not tested not soluble | 4b: IC50 mM [a,b]: > 0.2 (16) | 5b: IC50 mM [a,b]: > 0.2 (13) | 6b: IC50 mM [a,b]: NI at 0.2 | 7b: IC50 mM [a,b]: >1.0 (30) | 8b: IC50 mM [a,b]: > 1.0 (37) | 9b: IC50 mM [a,b]: NI at 0.5 | 10b: IC50 mM [a,b]: NI at 0.5 | 11b: IC50 mM [a,b]: > 1.0 (37) | 12b: IC50 mM [a,b]: NI at 0.5 | 13b: IC50 mM [a,b]: NI at 0.5 | 14b: IC50 mM [a,b]: >500 (20) DOUBTS OF THE COPYIST ABOUT THIS PICTURE: column head: raised note printed very small, read as [a,b]

[2] = target: T1, recombinant KPC-2; experiment: KPC-2 inhibition assay, CENTA as reporter substrate; type: biochemical; details: for fold less active than 9a: IC50 vs KPC-2 relative to compound 9a
Description: as §1, §2
Fig 4 Inhibitory activity of compounds selected from virtual screening. ^[a]Assays were performed in duplicate (errors were less than 5%) with CENTA as reporter substrate (100 μM, km 70 μM). Kinetic were monitored at 25° by following the absorbance variation at λ = 405 nm. ^[b] If no IC50 has been measured, percent inhibition at the highest tested concentration is given in parentheses. For example, > 0.50 (26%) implies that the highest concentration tested was 0.50 mM; at this concentration, the enzyme was inhibited by 26%. Therefore, IC50> 0.50 mM. When % Inhibition was below 10% No Inibition (NI) is reported. ^[c]Assays were run after 10’ incubation of the inhibitor with KPC-2. Reaction was started by the addition of CENTA. […] 0 (11) | 32a: IC50 mM ^[a,b]: 1.24
Competitive inhibition mechanism and the Ki for compound 9a was determined by Lineweaver–Burk (LB) and Dixon plots.

[3] = test system: Kpn 53A8; experiment: MIC of meropenem, alone or 1:1 with compounds, KPC-2 clinical strain; type: cell-based, K. pneumoniae; details: strain Kpn 53A8
Description: The antimicrobial activity of the best hits 9a and 11a and their derivatives was studied in bacterial cell cultures to investigate their ability to cross the outer membrane reaching the periplasmic space, where KPC-2 is secreted and confined in Gram negative bacteria. Compounds were tested for synergy with the β-lactam antibiotic meropenem against four K. pneumoniae clinical strains, isolated from different patients at the Hospital Universitario Son Espases, Palma de Mallorca, Spain. […] The three additional strains harbored the blaKPC-2 gene and were resistant to meropenem (Table 2). […] However, against strain Kpn 53A8 the MIC value was lowered by a factor of two when meropenem was combined with compounds 32a, 1b, 2b, 5b and 6b while in combination with compound 11a the MIC value was reduced by 4 fold.

[4] = CENTA 100 μM (km 70 μM), 25°, 405 nm, no pre-incubation, read-out: IC50
[5] = read-out: percent inhibition at the highest tested concentration
[6] = CENTA 100 μM, after 10' incubation of the inhibitor with KPC-2, read-out: IC50

pIC50 [1]: < 3.30
Compound: O=S(=O)(Nc1cccc(-c2nnn[nH]2)c1)c1ccc(C(F)(F)F)cc1 [14b]

Compound: COCc1nc2cc(NS(C)(=O)=O)ccc2o1 [21a]
pIC50 [2, 4]: < 3.00
inhibition at 1000 µM [2, 5]: 12%

Compound: Cc1c(Br)cc(S(=O)(=O)Nc2cccc(-c3nnn[nH]3)c2)cc1[N+](=O)[O-] [9b]
inhibition at 500 µM [1, 5]: < 10%

Compound: CS(=O)(=O)Nc1ccc2oc(=O)sc2c1 [31a]
pIC50 [2, 4]: < 3.00
inhibition at 1000 µM [2, 5]: 11%

Compound: CC(C)S(=O)(=O)Nc1ccc2c(c1)C(=O)N(C)CCO2 [15a]
pIC50 [2, 4]: < 3.18
inhibition at 660 µM [2, 5]: 38%

Compound: Cc1nn(CC(=O)O)c(C)c1NS(=O)(=O)CC(F)(F)F [29a]
pIC50 [2, 4]: < 3.00
inhibition at 1000 µM [2, 5]: 15%

Compound: CC(=O)Nc1ccc(S(=O)(=O)Nc2cccc(-c3nnn[nH]3)c2)cc1 [4b, N-(4-(N-(3-(1H-tetrazol-5-yl)phenyl)sulfamoyl)phenyl)acetamide]
pIC50 [1]: < 3.70
inhibition at 200 µM [1, 5]: 16%

Compound: O=S(=O)(Nc1cccc(-c2nnn[nH]2)c1)c1cccc2cccnc12 [5b, N-(3-(1H-tetrazol-5-yl)phenyl)quinoline-8-sulfonamide]
pIC50 [1]: < 3.70
inhibition at 200 µM [1, 5]: 13%
fold reduction of meropenem MIC in combination with compound [3]: two

Compound: Cc1n[nH]c(C)c1/C=C/c1cc(C(=O)O)ncn1 [24a]
pIC50 [2, 4]: < 4.00
inhibition at 100 µM [2, 5]: 41%

Compound: COc1ccc(-c2cn[nH]c2C(=O)O)c(OC)c1 [2a]
pIC50 [2, 4]: < 3.30
inhibition at 500 µM [2, 5]: 38%

Compound: O=C(NC1CC1)c1ccc(-c2nnn[nH]2)cc1 [18a]
pIC50 [2, 4]: < 3.00
inhibition at 1000 µM [2, 5]: 18%

Compound: O=[N+]([O-])c1cccc(S(=O)(=O)Nc2cccc(-c3nnn[nH]3)c2)c1 [2b, N-(3-(1H-tetrazol-5-yl)phenyl)-3-nitrobenzenesulfonamide]
pIC50 [1]: < 3.22
inhibition at 600 µM [1, 5]: 23%
fold reduction of meropenem MIC in combination with compound [3]: two

Compound: Cn1c(=O)c2n[nH]c(=O)nc2n(C)c1=O [14a]
pIC50 [2]: < 3.00
inhibition at 1000 µM [2, 5]: 26%

Compound: O=S(=O)(Nc1cccc(-c2nnn[nH]2)c1)c1ccc(S(=O)(=O)N2CCCC2)cc1 [10b]
inhibition at 500 µM [1, 5]: < 10%

Compound: CCOc1cc(C(=O)O)nc2ccc(OC)cc12 [20a]
pIC50 [2, 6]: < 3.30
inhibition at 500 µM [2, 5]: 28%

Compound: COc1cc(OC)c2cc(C(=O)O)nnc2c1 [28a]
pIC50 [2, 4]: < 3.30
inhibition at 500 µM [2, 5]: 14%

Compound: O=S(=O)(Nc1cccc(-c2nnn[nH]2)c1)c1cccc(F)c1 [1b, N-(3-(1H-tetrazol-5-yl)phenyl)-3-fluorobenzenesulfonamide]
pIC50 [1]: < 3.70
inhibition at 200 µM [1, 5]: 25%
fold reduction of meropenem MIC in combination with compound [3]: two

Compound: Cc1cc(C(=O)O)cc(S(=O)(=O)Nc2cccc(-c3nnn[nH]3)c2)c1C [8b]
pIC50 [1]: < 3.00
inhibition at 1000 µM [1, 5]: 37%

Compound: O=c1ccc(O)nn1-c1nnn[nH]1 [17a]
pIC50 [2, 4]: < 3.00
inhibition at 1000 µM [2, 5]: 23%

Compound: COc1ccc(NS(C)(=O)=O)cc1 [5a]
pIC50 [2, 4]: < 3.30
inhibition at 500 µM [2, 5]: 13%

Compound: O=S(=O)(/C=C/c1cccc(Br)c1)Nc1cccc(-c2nnn[nH]2)c1 [7b]
pIC50 [1]: < 3.00
inhibition at 1000 µM [1, 5]: 30%

Compound: Cc1nn(CC(=O)O)c2[nH]c(=O)cc(C(F)F)c12 [16a]
pIC50 [2, 4]: < 3.00
inhibition at 1000 µM [2, 5]: 17%

pIC50 [2, 6]: 4.15
Compound: O=C(Nc1cccc(-c2nn[nH]n2)c1)c1cccs1 [10a]

Compound: CC(=O)Nc1cccc(-c2nnn[nH]2)c1 [8a]
pIC50 [2, 4]: < 3.30
inhibition at 500 µM [2, 5]: 37%

Compound: CCS(=O)(=O)Nc1cc(-c2ccncc2)n[nH]1 [22a]
inhibition at 1000 µM [2, 5]: < 10%

Compound: O=C(Nc1cccc(-c2nnn[nH]2)c1)c1cccc(F)c1 [11a, N-(3-(1H-tetrazol-5-yl)phenyl)-3-fluorobenzamide]
fold reduction of meropenem MIC in combination with compound [3]: 4 fold
pIC50 [2, 6]: 4.44
pKi ([2]; Cheng-Prusoff equation from IC50, assuming competitive inhibition, read-out: Ki (calculated)): 4.83
ligand efficiency (LE) ([2]; vs KPC-2): 0.28 kcal/mol/non-hydrogen atom
mode of inhibition ([2]; vs KPC-2): competitive inhibitors

Compound: O=C(NCc1nnnn1-c1ccccc1)c1cccnc1O [25a]
pIC50 [2, 4]: < 3.40
inhibition at 400 µM [2, 5]: 26%

Compound: COc1ccc2[nH]nc(C(=O)O)c2c1 [1a]
pIC50 [2, 4]: < 3.48
inhibition at 330 µM [2, 5]: 30%

pIC50 [2, 6]: 3.15
Compound: Brc1cc2c(cc1-c1nnn[nH]1)OCO2 [12a]

Compound: O=C(O)Cc1c[nH]c2ncnn2c1=O [30a]
inhibition at 1000 µM [2, 5]: < 10%

Compound: NS(=O)(=O)c1ccc(Cl)c(S(=O)(=O)Nc2cccc(-c3nnn[nH]3)c2)c1 [13b]
inhibition at 500 µM [1, 5]: < 10%

Compound: COc1ccc2nc(N)sc2c1 [32a]
fold reduction of meropenem MIC in combination with compound [3]: two
fold less active than 9a [2]: 8 fold

Compound: O=c1c2ccc(S(=O)(=O)Nc3cccc(-c4nnn[nH]4)c3)cc2nc2n1CCCCC2 [12b]
inhibition at 500 µM [1, 5]: < 10%

Compound: Cc1nn(CC(=O)O)c2nccc(-c3cnn(C)c3)c12 [26a]
pIC50 [2, 4]: < 3.08
inhibition at 830 µM [2, 5]: 18%

Compound: COc1ccc2nc(C(=O)O)[nH]c2c1 [19a]
pIC50 [2, 4]: 3.06
fold less active than 9a [2]: 6 fold

Compound: CS(=O)(=O)Nc1ccc(C(N)=O)cc1 [6a]
pIC50 [2, 4]: < 3.00
inhibition at 1000 µM [2, 5]: 18%

Compound: Cc1c(-c2cc(C(=O)O)no2)cnn1C [3a]
pIC50 [2, 4]: < 3.60
inhibition at 250 µM [2, 5]: 13%

Compound: O=S(=O)(Nc1cccc(-c2nnn[nH]2)c1)c1ccc(Cl)cc1 [6b, N-(3-(1H-tetrazol-5-yl)phenyl)-4-chlorobenzenesulfonamide]
inhibition at 200 µM [1, 5]: < 10%
fold reduction of meropenem MIC in combination with compound [3]: two

Compound: Cn1nccc1-c1cc(C(=O)O)n[nH]1 [27a]
inhibition at 500 µM [2, 5]: < 10%

Compound: NC(=O)c1ccc(-c2nnn[nH]2)cc1 [13a]
inhibition at 250 µM [2, 5]: < 10%

Compound: Cn1cc(-c2cc(C(=O)O)no2)cn1 [4a]
pIC50 [2, 4]: < 3.60
inhibition at 250 µM [2, 5]: 12%

Compound: Cc1nc2cc(S(=O)(=O)Nc3cccc(-c4nnn[nH]4)c3)ccc2n1-c1ccccc1 [11b]
pIC50 [1]: < 3.00
inhibition at 1000 µM [1, 5]: 37%

Compound: CN(Cc1cnccn1)Cc1cccc(C(=O)O)n1 [23a]
pIC50 [2, 6]: < 3.00
inhibition at 1000 µM [2, 5]: 26%

Compound: CCOc1ccc(NS(C)(=O)=O)cc1 [7a]
pIC50 [2, 4]: < 3.00
inhibition at 1000 µM [2, 5]: 12%
